The values that follow come from patent US20210000757A1, “TOPICAL COMPOSITION” (Futura Medical Developments Limited, priority 2017, published 2021).

The subject of data set [1] is mitochondrial and cytosolic aldehyde dehydrogenase. The settings on record: in vitro; cited from earlier work.
The nature of data set [2]: Safety and pharmacokinetic study of different GTN concentrations compared with sub-lingual Nitrostat. The data set is classed as in vivo, human.

Usually Tmax stands for the time at which the peak concentration occurs. `O=[N+]([O-])OCC(CO[N+](=O)[O-])O[N+](=O)[O-]` [GTN, Glyceryl trinitrate]: the “time of peak rate of formation of nitric oxide from GTN” value in data set [1] was “approximately 100 seconds”. The “plasma concentration versus dosage level” value in data set [2] (in vivo) is recorded as “increased proportionally with increasing dosage level”. Further, the Tmax in data set [2] (male, human, in vivo, topical or ocular, pharmacokinetic modelling, topical gel, read-out: Tmax of initial zero order entry into systemic circulation) was in the range of 10 to 12 min. The “first appearance of GTN after application (lag time)” value in data set [2] (pharmacokinetic modelling, topical gel) was “around 4 minutes”.
